Results: ChEMBL document CHEMBL4304756, “Second-Generation Tryptamine Derivatives Potently Sensitize Colistin Resistant Bacteria to Colistin” (ACS Med Chem Lett, 2019)

Tests used:
Format in all cases: functional
Klebsiella pneumoniae [1] = assay: Potentiation of colistin-induced antibacterial activity against Klebsiella pneumoniae 2210291 harbouring mcr-1 gene assessed as colistin MIC at 50 uM incubated for 16 hrs by broth microdilution method (reference value: 16 ug/ml); details: Klebsiella pneumoniae, 2210291, 16 h
Escherichia coli [2] = assay: Potentiation of colistin-induced antibacterial activity against Escherichia coli YD626 assessed as colistin MIC at 50 uM incubated for 16 hrs by broth microdilution method (reference value: 1 ug/ml); details: YD626, 16 h
Klebsiella pneumoniae [3] = assay: Potentiation of colistin-induced antibacterial activity against Klebsiella pneumoniae 2210291 assessed as colistin MIC at 50 uM incubated for 16 hrs by broth microdilution method (reference value: 1 ug/ml); details: Klebsiella pneumoniae, 2210291, 16 h
Acinetobacter baumannii [4] = assay: Potentiation of colistin-induced antibacterial activity against Acinetobacter baumannii 17978 assessed as colistin MIC at 50 uM incubated for 16 hrs by broth microdilution method (reference value: 2 ug/ml); details: Acinetobacter baumannii, 17978, 16 h
Escherichia coli [5] = assay: Potentiation of colistin-induced antibacterial activity against Escherichia coli YD626 harbouring mcr-1 gene assessed as colistin MIC at 50 uM incubated for 16 hrs by broth microdilution method (reference value: 8 ug/ml); details: YD626, 16 h
Acinetobacter baumannii [6] = assay: Potentiation of colistin-induced antibacterial activity against Acinetobacter baumannii 17978 harbouring mcr-1 gene assessed as colistin MIC at 50 uM incubated for 16 hrs by broth microdilution method (reference value: 16 ug/ml); details: Acinetobacter baumannii, 17978, 16 h

## O=C(Nc1cc(Cl)c(Br)c(Cl)c1)Nc1ccc2cc[nH]c2c1
Klebsiella pneumoniae [1]
  MIC: 16 µg/mL
Escherichia coli [2]
  MIC: 1 µg/mL
Klebsiella pneumoniae [3]
  MIC: 1 µg/mL
Acinetobacter baumannii [4]
  MIC: 2 µg/mL
Escherichia coli [5]
  MIC: 8 µg/mL
Acinetobacter baumannii [6]
  MIC: 16 µg/mL

## O=C(Nc1cc(C(F)(F)F)cc(C(F)(F)F)c1)Nc1ccc2cc[nH]c2c1
Klebsiella pneumoniae [1]
  MIC: 16 µg/mL
Escherichia coli [2]
  MIC: 0.5 µg/mL
Klebsiella pneumoniae [3]
  MIC: 1 µg/mL
Acinetobacter baumannii [4]
  MIC: 1 µg/mL
Escherichia coli [5]
  MIC: 4 µg/mL
Acinetobacter baumannii [6]
  MIC: 8 µg/mL

## O=C(Nc1cc(Cl)c(Br)c(Cl)c1)Nc1ccc2[nH]ccc2c1
Klebsiella pneumoniae [1]
  MIC: 16 µg/mL
Escherichia coli [2]
  MIC: 0.5 µg/mL
Klebsiella pneumoniae [3]
  MIC: 1 µg/mL
Acinetobacter baumannii [4]
  MIC: 1 µg/mL
Escherichia coli [5]
  MIC: 8 µg/mL
Acinetobacter baumannii [6]
  MIC: 8 µg/mL

## O=C(NCc1c[nH]c2ccccc12)Nc1ccc(Cl)c(Cl)c1
Klebsiella pneumoniae [1]
  MIC: 16 µg/mL
Escherichia coli [2]
  MIC: 0.5 µg/mL
Klebsiella pneumoniae [3]
  MIC: 0.5 µg/mL
Acinetobacter baumannii [4]
  MIC: 2 µg/mL
Escherichia coli [5]
  MIC: 4 µg/mL
Acinetobacter baumannii [6]
  MIC: 16 µg/mL

## O=C(NCCc1c[nH]c2ccc(Br)cc12)Nc1cc(Br)cc(Br)c1
Klebsiella pneumoniae [1]
  MIC: 2 µg/mL
Escherichia coli [2]
  MIC: 0.25 µg/mL
Klebsiella pneumoniae [3]
  MIC: 0.5 µg/mL
Acinetobacter baumannii [4]
  MIC: 0.5 µg/mL
Escherichia coli [5]
  MIC: 2 µg/mL
Acinetobacter baumannii [6]
  MIC: 2 µg/mL

## CCCCc1ccc(NC(=O)Nc2ccc3cc[nH]c3c2)cc1
Klebsiella pneumoniae [1]
  MIC: 16 µg/mL
Escherichia coli [2]
  MIC: 0.5 µg/mL
Klebsiella pneumoniae [3]
  MIC: 1 µg/mL
Acinetobacter baumannii [4]
  MIC: 2 µg/mL
Escherichia coli [5]
  MIC: 8 µg/mL
Acinetobacter baumannii [6]
  MIC: 8 µg/mL

## CCCCc1ccc(NC(=O)NCc2c[nH]c3ccccc23)cc1
Klebsiella pneumoniae [1]
  MIC: 16 µg/mL
Escherichia coli [2]
  MIC: 1 µg/mL
Klebsiella pneumoniae [3]
  MIC: 0.5 µg/mL
Acinetobacter baumannii [4]
  MIC: 2 µg/mL
Escherichia coli [5]
  MIC: 8 µg/mL
Acinetobacter baumannii [6]
  MIC: 16 µg/mL

## O=C(NCCc1c[nH]c2ccc(Br)cc12)c1cc(C(F)(F)F)cc(C(F)(F)F)c1
Klebsiella pneumoniae [1]
  MIC: 8 µg/mL
Escherichia coli [2]
  MIC: 0.0625 µg/mL
Klebsiella pneumoniae [3]
  MIC: 0.25 µg/mL
Acinetobacter baumannii [4]
  MIC: 0.5 µg/mL
Escherichia coli [5]
  MIC: 4 µg/mL
Acinetobacter baumannii [6]
  MIC: 8 µg/mL

## O=C(NCCc1c[nH]c2ccc(Br)cc12)c1ccc(Cl)c(Cl)c1
Klebsiella pneumoniae [1]
  MIC: 1 µg/mL
Escherichia coli [2]
  MIC: 0.25 µg/mL
Klebsiella pneumoniae [3]
  MIC: 0.5 µg/mL
Acinetobacter baumannii [4]
  MIC: 0.5 µg/mL
Escherichia coli [5]
  MIC: 2 µg/mL
Acinetobacter baumannii [6]
  MIC: 1 µg/mL

## O=C(NCCc1c[nH]c2ccccc12)c1cc(C(F)(F)F)cc(C(F)(F)F)c1
Klebsiella pneumoniae [1]
  MIC: 16 µg/mL
Escherichia coli [2]
  MIC: 0.0625 µg/mL
Klebsiella pneumoniae [3]
  MIC: 0.25 µg/mL
Acinetobacter baumannii [4]
  MIC: 0.25 µg/mL
Escherichia coli [5]
  MIC: 4 µg/mL
Acinetobacter baumannii [6]
  MIC: 8 µg/mL

## O=C(NCc1c[nH]c2ccccc12)Nc1cc(Cl)c(Br)c(Cl)c1
Klebsiella pneumoniae [1]
  MIC: 8 µg/mL
Escherichia coli [2]
  MIC: 0.25 µg/mL
Klebsiella pneumoniae [3]
  MIC: 0.5 µg/mL
Acinetobacter baumannii [4]
  MIC: 1 µg/mL
Escherichia coli [5]
  MIC: 8 µg/mL
Acinetobacter baumannii [6]
  MIC: 8 µg/mL

## O=C(Nc1ccc(Cl)c(Cl)c1)Nc1ccc2cc[nH]c2c1
Klebsiella pneumoniae [1]
  MIC: 16 µg/mL
Escherichia coli [2]
  MIC: 1 µg/mL
Klebsiella pneumoniae [3]
  MIC: 1 µg/mL
Acinetobacter baumannii [4]
  MIC: 2 µg/mL
Escherichia coli [5]
  MIC: 8 µg/mL
Acinetobacter baumannii [6]
  MIC: 16 µg/mL

## O=C(NCCc1c[nH]c2ccccc12)c1ccc(Cl)c(Cl)c1
Klebsiella pneumoniae [1]
  MIC: 2 µg/mL
Escherichia coli [2]
  MIC: 0.5 µg/mL
Klebsiella pneumoniae [3]
  MIC: 0.5 µg/mL
Acinetobacter baumannii [4]
  MIC: 1 µg/mL
Escherichia coli [5]
  MIC: 2 µg/mL
Acinetobacter baumannii [6]
  MIC: 2 µg/mL

## O=C(NCCc1c[nH]c2ccc(Br)cc12)c1cc(Br)cc(Br)c1
Klebsiella pneumoniae [1]
  MIC: 4 µg/mL
Escherichia coli [2]
  MIC: 0.5 µg/mL
Klebsiella pneumoniae [3]
  MIC: 0.5 µg/mL
Acinetobacter baumannii [4]
  MIC: 1 µg/mL
Escherichia coli [5]
  MIC: 4 µg/mL
Acinetobacter baumannii [6]
  MIC: 4 µg/mL

## O=C(Nc1cc(Br)cc(Br)c1)Nc1ccc2cc[nH]c2c1
Klebsiella pneumoniae [1]
  MIC: 16 µg/mL
Escherichia coli [2]
  MIC: 1 µg/mL
Klebsiella pneumoniae [3]
  MIC: 1 µg/mL
Acinetobacter baumannii [4]
  MIC: 2 µg/mL
Escherichia coli [5]
  MIC: 8 µg/mL
Acinetobacter baumannii [6]
  MIC: 16 µg/mL

## O=C(NCc1c[nH]c2ccccc12)Nc1cc(C(F)(F)F)cc(C(F)(F)F)c1
Klebsiella pneumoniae [1]
  MIC: 1 µg/mL
Escherichia coli [2]
  MIC: 0.0313 µg/mL
Klebsiella pneumoniae [3]
  MIC: 0.125 µg/mL
Acinetobacter baumannii [4]
  MIC: 0.125 µg/mL
Escherichia coli [5]
  MIC: 1 µg/mL
Acinetobacter baumannii [6]
  MIC: 1 µg/mL

## O=C(Nc1cc(Br)cc(Br)c1)Nc1ccc2[nH]ccc2c1
Klebsiella pneumoniae [1]
  MIC: 16 µg/mL
Escherichia coli [2]
  MIC: 1 µg/mL
Klebsiella pneumoniae [3]
  MIC: 1 µg/mL
Acinetobacter baumannii [4]
  MIC: 1 µg/mL
Escherichia coli [5]
  MIC: 8 µg/mL
Acinetobacter baumannii [6]
  MIC: 16 µg/mL

## CCCCc1ccc(NC(=O)Nc2ccc3[nH]ccc3c2)cc1
Klebsiella pneumoniae [1]
  MIC: 16 µg/mL
Escherichia coli [2]
  MIC: 0.5 µg/mL
Klebsiella pneumoniae [3]
  MIC: 0.5 µg/mL
Acinetobacter baumannii [4]
  MIC: 1 µg/mL
Escherichia coli [5]
  MIC: 8 µg/mL
Acinetobacter baumannii [6]
  MIC: 16 µg/mL

## O=C(NCCc1c[nH]c2ccccc12)c1cc(Br)cc(Br)c1
Klebsiella pneumoniae [1]
  MIC: 4 µg/mL
Escherichia coli [2]
  MIC: 0.25 µg/mL
Klebsiella pneumoniae [3]
  MIC: 0.5 µg/mL
Acinetobacter baumannii [4]
  MIC: 1 µg/mL
Escherichia coli [5]
  MIC: 4 µg/mL
Acinetobacter baumannii [6]
  MIC: 4 µg/mL
